Drawing on patent US20230321042A1, “COMBINATION THERAPY” (PFIZER INC., priority 2020, published 2023), this text covers Ki, EC50 and MTD for four compounds.

The target of one data set is CDK4/Cyclin D1 (Homo sapiens (Human), UniProt P11802). Nature of the data set: CDK4/Cyclin D1 mobility shift assay. In kind it is biochemical. The settings on record: 3.5 mM ATP.
A further data set has as its target CDK6/Cyclin D3 (Homo sapiens (Human), UniProt Q00534). Nature of the data set: CDK6/Cyclin D3 mobility shift assay. It is filed as biochemical. The following applies: 3.5 mM ATP. The method, then: The mobility shift assay electrophoretically separates the fluorescently labelled peptides (substrate and phosphorylated product) following the kinase reaction. […] Typical reaction solutions contained 2% DMSO (± inhibitor), 2% glycerol, 10 mM MgCl2, 1 mM DTT, 3.5 mM ATP, 0.005% Tween 20 (TW-20), 3 µM 5-FAM-Dyrktide, 4 nM (active sites) activated CDK6/Cyclin D3 in 40 mM HEPES buffer at pH 7.5.
The reaction was stopped after 95 minutes by the addition of 50 µL of 30 mM EDTA. Ki determinations were made from a plot of the fractional velocity as a function of inhibitor concentration fit to the Morrison equation with the enzyme concentration as a variable.

For another data set, the system named is HCC1428. Nature of the data set: 7-day anti-proliferation assay (CyQuant Direct) in HCC1428. In kind it is cell-based. The following applies: Homo sapiens, 168 h; HCC1428, 7-day. As to the method: (§1) Functional effects of test compounds were measured in a 7-day anti-proliferation assay in three ER+ breast cancer cell lines. Cells were seeded in 96-well plates and allowed to adhere overnight prior to compound treatment.

Another data set deals with MCF7. Description: 7-day anti-proliferation assay (CyQuant Direct) in MCF7. In kind it is cell-based. The following applies: Homo sapiens, 168 h; MCF7, 7-day. The method, then:
as §1

Another data set deals with T47D. Nature of the data set: 7-day anti-proliferation assay (CyQuant Direct) in T47D. The following applies: Homo sapiens, 168 h. In kind it is cell-based. As to the method: as §1
Data set [1] is described as follows: In vivo study in MCF-7 breast cancer xenograft. The settings on record: female, mouse, po, BID, MCF7 xenograft model, NSG mice, read-out: maximum tolerated dose level. The method, then: The MCF7 model was established by implanting passage 0 tumor fragments into recipient mice. To establish the MCF7 donor mice, tumor cells (5 × 10^6 cells/mouse with 50% Cultrex® Basement Membrane Matrix) were subcutaneously implanted in female NSG mice. Once reaching a range of 700 to 800 mm^3, donor tumors were subsequently transplanted into secondary recipient mice for study expansion. […] TGI was assessed on Day 21 post first dose (or Day 42 post tumor fragment implant). […] In the 150 mpk combination group, 50% of mice were found dead or were euthanized by the end of 21 days due to severe anemia.

CDK6/Cyclin D3, sequence (Q00534 whole entry): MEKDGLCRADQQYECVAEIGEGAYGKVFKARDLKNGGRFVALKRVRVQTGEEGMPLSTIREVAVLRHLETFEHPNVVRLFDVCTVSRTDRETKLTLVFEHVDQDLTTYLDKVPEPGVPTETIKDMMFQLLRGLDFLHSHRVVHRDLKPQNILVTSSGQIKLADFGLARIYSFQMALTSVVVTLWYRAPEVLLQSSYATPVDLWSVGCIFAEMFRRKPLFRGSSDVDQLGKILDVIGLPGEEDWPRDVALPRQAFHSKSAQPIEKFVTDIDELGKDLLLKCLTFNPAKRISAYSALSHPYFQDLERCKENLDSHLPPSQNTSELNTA
CDK6/Cyclin D3, sequence (P30281 whole entry partner): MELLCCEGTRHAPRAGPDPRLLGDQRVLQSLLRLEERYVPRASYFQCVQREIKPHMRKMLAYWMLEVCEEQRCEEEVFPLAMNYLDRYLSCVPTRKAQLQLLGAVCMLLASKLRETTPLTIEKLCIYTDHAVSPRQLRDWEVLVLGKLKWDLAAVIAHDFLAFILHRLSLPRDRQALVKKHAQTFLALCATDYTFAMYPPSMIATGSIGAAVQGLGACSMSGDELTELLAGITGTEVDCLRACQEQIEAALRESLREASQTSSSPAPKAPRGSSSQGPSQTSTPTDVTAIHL
CDK4/Cyclin D1, sequence (P11802 whole entry): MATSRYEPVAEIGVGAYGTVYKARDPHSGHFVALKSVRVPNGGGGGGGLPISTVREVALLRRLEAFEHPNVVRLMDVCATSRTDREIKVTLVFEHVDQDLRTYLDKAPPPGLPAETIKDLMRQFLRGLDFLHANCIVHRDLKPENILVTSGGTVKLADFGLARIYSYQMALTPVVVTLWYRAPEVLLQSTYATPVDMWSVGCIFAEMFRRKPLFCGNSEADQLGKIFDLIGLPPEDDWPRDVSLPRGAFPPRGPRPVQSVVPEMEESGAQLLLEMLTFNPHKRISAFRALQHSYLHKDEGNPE
CDK4/Cyclin D1, sequence (P24385 whole entry partner): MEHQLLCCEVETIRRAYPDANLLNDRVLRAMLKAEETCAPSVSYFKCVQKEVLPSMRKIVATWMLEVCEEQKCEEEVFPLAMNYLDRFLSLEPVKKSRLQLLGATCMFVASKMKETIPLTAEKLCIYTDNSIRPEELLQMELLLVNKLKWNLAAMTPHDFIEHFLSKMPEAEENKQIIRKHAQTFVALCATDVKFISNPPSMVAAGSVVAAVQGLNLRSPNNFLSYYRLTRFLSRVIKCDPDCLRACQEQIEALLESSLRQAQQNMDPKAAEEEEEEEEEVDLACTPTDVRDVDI
Protocol for CDK4/Cyclin D1: The purpose CDK4/Cyclin D1 assay is to evaluate the inhibition (% inhibition, Kiapp and Ki values) in the presence of small molecule inhibitors by using a fluorescence based microfluidic mobility shift assay. […] The mobility shift assay electrophoretically separates the fluorescently labelled peptides (substrate and phosphorylated product) following the kinase reaction. Both substrate and product are measured and the ratio of these values is used to generate % conversion of substrate to product by the LabChip EZ Reader. […] The reaction was stopped after 195 minutes by the addition of 50 µL of 30 mM EDTA. Ki determinations were made from a plot of the fractional velocity as a function of inhibitor concentration fit to the Morrison equation with the enzyme concentration as a variable.

As to `CCCNC(=O)O[C@@H]1CC[C@H](c2cc(NC(=O)Cc3ccnc(OC)c3)n[nH]2)C1` [COMPOUND C, (1R,3S)-3-(3-{[(2-methoxypyridin-4-yl)acetyl]amino}-1H-pyrazol-5-yl)cyclopentyl propylcarbamate], the Ki (commonly the equilibrium dissociation constant of an inhibitor or competing ligand from its target) amounted to 149 nM at CDK4/Cyclin D1 and 215 nM at CDK6/Cyclin D3. The EC50 – broadly, the concentration at which the effect is half-maximal – stood at 710 nM in the data set on HCC1428, 336 nM in the data set with MCF7 and 443 nM in the data set with T47D.
In the same order, the values of `CC[C@H](C)NC(=O)O[C@@H]1CC[C@H](c2cc(NC(=O)Cc3ccccc3S(C)(=O)=O)n[nH]2)C1` [COMPOUND B, (1R,3S)-3-[3-({[2-(methylsulfonyl)phenyl]acetyl}amino)-1H-pyrazol-5-yl]cyclopentyl (2S)-butan-2-ylcarbamate] are 107 nM, 254 nM, 790 nM, 190 nM and 220 nM.
On to `COCc1cc(C(=O)Nc2cc([C@H]3CC[C@@H](OC(=O)NC(C)C)C3)[nH]n2)n(C)n1` [COMPOUND A, (1R,3S)-3-[3-({[3-(methoxymethyl)-1-methyl-1H-pyrazol-5-yl]carbonyl}amino)-1H-pyrazol-5-yl]cyclopentyl propan-2-ylcarbamate], for which the Ki on CDK6/Cyclin D3 amounted to 465 nM. The EC50 is above 1000 nM with HCC1428, 386 nM in the data set on MCF7 and 403 nM with T47D. In addition, the MTD at 21 days in data set [1] is 150 mg/kg.
As for `CC(=O)c1c(C)c2cnc(Nc3ccc(N4CCNCC4)cn3)nc2n(C2CCCC2)c1=O` [Palbociclib, 6-acetyl-8-cyclopentyl-5-methyl-2-(5-piperazin-1-yl-pyridin-2-ylamino)-8H-pyrido[2,3-d]pyrimidin-7-one, reference compound], the EC50 with HCC1428 stood at 355 nM; in the data set with MCF7, 79 nM; in the data set with T47D it was 87 nM.
